Consider five compounds from PubChem BioAssay (NCI).

Test systems include DU-145 prostate; HCC-2998 colon; KM12 colon; MDA-MB-231 breast; NCI-H226 lung; NCI-H23 lung; OVCAR-4 ovarian; OVCAR-8 ovarian; SR leukemia; U251 CNS.
What all share (experiment): NCI anticancer screen, dose series, 48 h

Values joined by “and” are separate entries in the source; they are usually repeats but may differ in a detail not shown here. Equal values may be shown once.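 Tested at 5 concentrations; 48 h exposure; 96-well plates; endpoints linearly interpolated, else capped at highest concentration. The concentration for 50% growth inhibition is given as GI50. TGI: total growth inhibition.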 Some results are limits rather than exact numbers.

With `NC(CSC(c1ccccc1)(c1ccccc1)c1ccc(Br)cc1)C(=O)O` (centres undefined), the GI50 is 0.236 µM in the assay with DU-145 prostate; 0.174 µM in the assay with HCC-2998 colon; 0.212 µM with KM12 colon; 0.133 µM in the assay on MDA-MB-231 breast; 11.3 µM in the assay with NCI-H226 lung; 0.438 µM with NCI-H23 lung. Besides, the GI50 with OVCAR-4 ovarian was 19.9 µM; in the assay on OVCAR-8 ovarian, 0.321 µM; in the assay on SR leukemia, 1.33 µM; in the assay on U251 CNS, 0.0798 µM. In addition, the TGI with DU-145 prostate was 0.548 µM; with HCC-2998 colon, 1.5 µM; in the assay on KM12 colon it was 12.7 µM; in the assay with MDA-MB-231 breast, 3.92 µM; in the assay on NCI-H226 lung it was 33.4 µM; in the assay on NCI-H23 lung it was 66.7 µM. Moreover, the TGI is more than 100 µM in the assay on OVCAR-4 ovarian, more than 51.7 µM in the assay on OVCAR-8 ovarian, more than 38.7 µM with SR leukemia and 25.5 µM in the assay with U251 CNS.
As to `O=C(Nc1ccc(-n2cc(-c3ccncc3)c(-c3ccc(Cl)c(O)c3)n2)cc1)c1ccc(Cl)c(C(F)(F)F)c1`, the GI50 in the assay on DU-145 prostate was 2.7 µM; in the assay with HCC-2998 colon, 1.69 µM; with KM12 colon, 0.451 µM; in the assay on MDA-MB-231 breast, 0.322 µM; in the assay with NCI-H226 lung, 16.3 µM; in the assay on NCI-H23 lung, 1.72 µM. Also, the GI50 in the assay with OVCAR-4 ovarian is 3.66 µM; in the assay with OVCAR-8 ovarian, 2.82 µM; in the assay on SR leukemia, 1.37 µM; in the assay with U251 CNS it was 0.895 µM. For the same compound, the TGI in the assay with DU-145 prostate is more than 20.3 µM; with HCC-2998 colon it was 6.96 µM; in the assay with KM12 colon, 2.88 µM; with MDA-MB-231 breast it was 1.48 µM; in the assay on NCI-H226 lung, more than 71 µM; with NCI-H23 lung, 5.08 µM. For the same compound, the TGI with OVCAR-4 ovarian was more than 90.4 µM; in the assay on OVCAR-8 ovarian it was more than 46 µM; in the assay with SR leukemia it was more than 26.2 µM; in the assay on U251 CNS, 2.91 µM.
For `CCOc1ccc(-n2cc(-c3ccc(N(C)C)cc3)[n+]3c2CCCCC3)cc1`, the GI50 in the assay on DU-145 prostate is 1.82 µM; with HCC-2998 colon, 0.188 µM; in the assay on KM12 colon it was 0.168 µM; in the assay on MDA-MB-231 breast, 1.93 µM; in the assay with NCI-H226 lung, 1.56 µM; with NCI-H23 lung it was 0.0935 µM. The GI50 was 0.103 µM with OVCAR-4 ovarian, 1.34 µM in the assay on OVCAR-8 ovarian, 0.978 µM with SR leukemia and 0.312 µM in the assay on U251 CNS. The TGI in the assay on DU-145 prostate was more than 100 µM; in the assay with HCC-2998 colon it was more than 100 µM; with KM12 colon it was 27.8 µM; in the assay on MDA-MB-231 breast, more than 27.8 µM; in the assay on NCI-H226 lung it was more than 100 µM; in the assay on NCI-H23 lung it was more than 43 µM. The TGI was more than 100 µM in the assay with OVCAR-4 ovarian, more than 100 µM in the assay on OVCAR-8 ovarian, 29.4 µM in the assay with SR leukemia and more than 100 µM in the assay on U251 CNS.
For the compound `COc1ccc(-n2cc(-c3ccc(F)cc3)[nH]c2=O)cc1OC`, the GI50 with DU-145 prostate, with HCC-2998 colon, with KM12 colon, in the assay with MDA-MB-231 breast, in the assay on NCI-H226 lung and with NCI-H23 lung was more than 100 µM throughout. The GI50 in the assay with OVCAR-4 ovarian was more than 100 µM; in the assay on OVCAR-8 ovarian it was 82.1 µM; in the assay on SR leukemia, more than 100 µM; with U251 CNS, more than 100 µM. For the same compound, the TGI with DU-145 prostate, in the assay on HCC-2998 colon, in the assay on KM12 colon, with MDA-MB-231 breast, with NCI-H226 lung and in the assay on NCI-H23 lung was more than 100 µM throughout. For the same compound, the TGI in the assay on OVCAR-4 ovarian, with OVCAR-8 ovarian, with SR leukemia and in the assay on U251 CNS was more than 100 µM in each case.
Take `N[C@@H](Cc1ccc(N(CCCl)CCCl)cc1)C(=O)O`: the GI50 in the assay on DU-145 prostate is 18.8 µM; in the assay with HCC-2998 colon, 75.5 µM and 22.1 µM; in the assay on KM12 colon, 83.9 µM and 42.7 µM; in the assay on MDA-MB-231 breast it was more than 100 µM; in the assay on NCI-H226 lung, 44.6 µM and 26.6 µM; in the assay with NCI-H23 lung it was 20.6 µM and 12.5 µM. Also, the GI50 is 32.1 µM and 18.6 µM in the assay on OVCAR-4 ovarian; 27.7 µM and 19.7 µM with OVCAR-8 ovarian; 16.1 µM and 11.9 µM in the assay on U251 CNS. Also, the TGI in the assay with DU-145 prostate is 85.7 µM and 227 µM; with HCC-2998 colon, > 100 µM and 62.2 µM and 95.4 µM; in the assay with KM12 colon, > 100 µM and > 83.7 µM and 168 µM; in the assay with MDA-MB-231 breast, > 100 µM and 134 µM; in the assay with NCI-H226 lung, > 100 µM and 52.7 µM and 156 µM; in the assay on NCI-H23 lung, > 100 µM and 45.5 µM and 84.7 µM. Also, the TGI was > 100 µM and 48.2 µM and 84.3 µM in the assay on OVCAR-4 ovarian; > 100 µM and 50.9 µM and 110 µM in the assay with OVCAR-8 ovarian; 39.1 µM and 71.4 µM in the assay on SR leukemia; > 100 µM and 31.7 µM and 121 µM in the assay on U251 CNS.
